Laboratory results: patent publication US20230210831A1, “CHRONIC KIDNEY DISEASE TREATMENT OR PREVENTION METHOD” (Japan Tobacco Inc., priority 2019, published 2023)

Assays:
glucose-loaded SD rats [1] = experiment: OGTT (oral glucose tolerance test), Test Example 2; assay type: in vivo, rat; conditions: 1, 3, or 10 mg/kg orally 16 hours before glucose load; male SD rats; compared to vehicle
Method: Vehicle (0.5% methylcellulose solution) or Compound 1 (1, 3, or 10 mg/kg) suspended in a 0.5% methylcellulose solution was orally administered in 5 mL/kg to an about 4-hour-fasted male SD rat (8-week old, Nihon Charles River K.K., 6 cases for each group).
Statistical analyses were based on Steel’s multiple test. The significance level was two-sided 5%.

human SGLT1 = biological target: T1, human SGLT1 (Homo sapiens, UniProt P13866); experiment: Assessment of SGLT1 inhibitory activity (14C-AMG uptake in human SGLT1-stably-expressing CHO-K1 cells); assay type: cell-based
T1 construct: expressed in transfected cells; PCR template pCMV6-hSGLT1 (OriGene)
T1 sequence (P13866 1-664): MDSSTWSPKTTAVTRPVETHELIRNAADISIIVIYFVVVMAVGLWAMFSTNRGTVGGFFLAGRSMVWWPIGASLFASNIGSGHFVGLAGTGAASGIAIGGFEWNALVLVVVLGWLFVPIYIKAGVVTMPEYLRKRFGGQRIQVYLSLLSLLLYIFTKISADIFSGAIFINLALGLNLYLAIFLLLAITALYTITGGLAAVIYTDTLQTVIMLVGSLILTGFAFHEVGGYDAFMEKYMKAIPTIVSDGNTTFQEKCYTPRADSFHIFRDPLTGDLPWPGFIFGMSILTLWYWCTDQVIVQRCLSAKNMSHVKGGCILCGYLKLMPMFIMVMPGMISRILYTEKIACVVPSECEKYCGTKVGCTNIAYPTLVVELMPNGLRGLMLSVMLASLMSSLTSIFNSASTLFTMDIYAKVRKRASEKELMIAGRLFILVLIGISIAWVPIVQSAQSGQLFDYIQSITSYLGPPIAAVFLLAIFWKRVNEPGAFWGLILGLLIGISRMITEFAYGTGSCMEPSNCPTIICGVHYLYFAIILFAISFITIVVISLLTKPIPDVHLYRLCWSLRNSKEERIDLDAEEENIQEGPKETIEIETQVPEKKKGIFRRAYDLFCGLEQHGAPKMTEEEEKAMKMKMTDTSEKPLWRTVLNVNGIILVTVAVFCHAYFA
Method: SGLT1 inhibitory activities of test compounds (IC50 values) were calculated based on the amount of intracellular uptake of labelled α-methyl-D-glucopyranoside (^14C-AMG) transported by SGLT1.
A DNA fragment containing human SGLT1 was amplified by PCR (Polymerase Chain Reaction) using pCMV6-hSGLT1 (OriGene) as a template. In the human SGLT1, NheI recognition and cleavage sequence was added to the upstream of Kozac consensus sequence derived from a vector, and a stop codon, TAG, and SalI recognition and cleavage sequence were added to the immediate downstream of the protein-translating region of human SGLT1. […]
Human SGLT1-stably-expressing cell lines were seeded at 5 x 10^4 cells/well on BioCoat™ Poly-D-Lysine 96 well plate with Lid (Becton, Dickinson and Company) and cultured at 37° C. under 5% CO2 overnight. […] In the assessment for the uptake ability of 14C-AMG, the total amount of the cell lysate was transferred to OptiPlate 96 (Perkin-Elmer) with 100 µL/well of MicroScint-40 (Perkin-Elmer) dispensed and ^14 C of CPM was measured with TOPCOUNT NXT (Perkin-Elmer).
Data was calculated by deducting the average value of CPM for blank well from the average value of CPM for each well treated. An inhibition rate for each test compound in each concentration was calculated from the following equation: […]

glucose-loaded SD rats [2] = experiment: OGTT (oral glucose tolerance test), Test Example 3; assay type: in vivo, rat; conditions: 3 mg/kg orally 16 hours before glucose load; male SD rats; compared to vehicle
Method: Vehicle (0.5% methylcellulose solution), or Compound 1, Compound A, or Compound B (3 mg/kg each) suspended in a 0.5% methylcellulose solution was orally administered in 5 mL/kg to an about 4-hour-fasted male SD rat (8-week old, Nihon Charles River K.K., 5 cases for each group).
Statistical analyses were based on Dunnett’s multiple group test. The significance level was two-sided 5%.

SDT fatty rats = experiment: Assessment of renal protective effect (GFR in SDT fatty rats); assay type: in vivo, rat; conditions: 2 mg/kg orally once a day, 16 weeks; male SDT fatty rats
Method: Vehicle (0.5% methyl cellulose solution), Compound 1 (2 mg/kg), or dapagliflozin (0.3 mg/kg) was orally administered once a day to male SDT fatty rats (7-week old, CLEA Japan, Inc.); and as a normal control, vehicle was orally administered once a day to male SD rats (7-week old, CLEA Japan, Inc.). 16 Weeks after the administration, GFR (mL/min/100 g B.W.) was measured with a transdermal GFR monitor (MediBeacon). For statistical analysis, Student’s test was conducted between the vehicle-administered group of SD rats and the vehicle-administered group of SDT fatty rats. Dunnett’s multiple test was conducted for the Compound 1 and dapagliflozin groups to the vehicle group of SDT fatty rats. The significance level was two-sided 5%.

⅚-kidney-removed rats = experiment: Assessment of renal protective effect 2 (⅚-kidney-removed rats); assay type: in vivo, rat; conditions: 2 mg/kg/day mixed with feed, vs vehicle-administered group
Method: 7-Week old male Wistar rats (Japan SLC, Inc.) were treated by removing ⅔ of the left kidney under isoflurane anesthesia and then removing the whole right kidney one week later to prepare ⅚-kidney-removed rats. Compound 1 (2 mg/kg/day) mixed with feed was orally administered to the rats from the age of 9 weeks. As a normal control, male Wistar rats at the same age were set as a sham group. […] For statistical analysis, Student’s test was conducted between the vehicle-administered group and the Compound 1-administered group. […] For statistical analysis, Student’s test or Aspin-Welch was conducted.

C[C@H]1C(=O)NC[C@@H]1C(=O)Nc1cc(-c2cc(F)cc(OC(C)(C)C)c2)n(C(F)(F)F)n1 [Compound 1, (3R,4R)-N-(5-(3-(tert-butoxy)-5-fluorophenyl)-1-(trifluoromethyl)-1H-pyrazol-3-yl)-4-methyl-5-oxopyrrolidine-3-carboxamide]
blood glucose level after the glucose load (Δ AUC to 120 minutes, % of Vehicle) (glucose-loaded SD rats [1]): significantly reduced
SGLT1 inhibitory activity (human SGLT1): confirmed to have the SGLT1 inhibitory activity
blood glucose level after the glucose load (Δ AUC to 120 minutes, % of Vehicle) (glucose-loaded SD rats [2]): significantly reduced
GFR (SDT fatty rats): inhibited the increase of GFR
protein quantity in the urine (⅚-kidney-removed rats): lower than those of the vehicle-administered group
urea nitrogen level (⅚-kidney-removed rats): significantly lower than those of the vehicle-administered group
